Measured values from patent publication USRE38132E1, “Phenylpyrrolidines, phenylimidazolidines,3-phenyl-1,3-oxizolidines and 3-phenyl-1,3-thiazolidines and their use in the treatment of inflammatory disease” (Boehringer Ingelheim Pharmaceuticals, Inc., priority 1997, dated 2003).
Read-outs that look alike come from different tables or passages of the source.

Tests used:
[1] = molecular target: T1, interaction of ICAM-1 with the Leukointegrin CD18/CD11a (LFA-1) (Homo sapiens, UniProt P05107+P20701); experiment: Assay to determine inhibition of LFA-1 binding to ICAM-1 (immunopurified LFA-1 on plate-bound sICAM-1, ELISA readout)
T1 construct: endogenous in cells; sICAM-1: made in house, secreted from transfected CHO DUX cells
T1 sequence (P20701 26-1170): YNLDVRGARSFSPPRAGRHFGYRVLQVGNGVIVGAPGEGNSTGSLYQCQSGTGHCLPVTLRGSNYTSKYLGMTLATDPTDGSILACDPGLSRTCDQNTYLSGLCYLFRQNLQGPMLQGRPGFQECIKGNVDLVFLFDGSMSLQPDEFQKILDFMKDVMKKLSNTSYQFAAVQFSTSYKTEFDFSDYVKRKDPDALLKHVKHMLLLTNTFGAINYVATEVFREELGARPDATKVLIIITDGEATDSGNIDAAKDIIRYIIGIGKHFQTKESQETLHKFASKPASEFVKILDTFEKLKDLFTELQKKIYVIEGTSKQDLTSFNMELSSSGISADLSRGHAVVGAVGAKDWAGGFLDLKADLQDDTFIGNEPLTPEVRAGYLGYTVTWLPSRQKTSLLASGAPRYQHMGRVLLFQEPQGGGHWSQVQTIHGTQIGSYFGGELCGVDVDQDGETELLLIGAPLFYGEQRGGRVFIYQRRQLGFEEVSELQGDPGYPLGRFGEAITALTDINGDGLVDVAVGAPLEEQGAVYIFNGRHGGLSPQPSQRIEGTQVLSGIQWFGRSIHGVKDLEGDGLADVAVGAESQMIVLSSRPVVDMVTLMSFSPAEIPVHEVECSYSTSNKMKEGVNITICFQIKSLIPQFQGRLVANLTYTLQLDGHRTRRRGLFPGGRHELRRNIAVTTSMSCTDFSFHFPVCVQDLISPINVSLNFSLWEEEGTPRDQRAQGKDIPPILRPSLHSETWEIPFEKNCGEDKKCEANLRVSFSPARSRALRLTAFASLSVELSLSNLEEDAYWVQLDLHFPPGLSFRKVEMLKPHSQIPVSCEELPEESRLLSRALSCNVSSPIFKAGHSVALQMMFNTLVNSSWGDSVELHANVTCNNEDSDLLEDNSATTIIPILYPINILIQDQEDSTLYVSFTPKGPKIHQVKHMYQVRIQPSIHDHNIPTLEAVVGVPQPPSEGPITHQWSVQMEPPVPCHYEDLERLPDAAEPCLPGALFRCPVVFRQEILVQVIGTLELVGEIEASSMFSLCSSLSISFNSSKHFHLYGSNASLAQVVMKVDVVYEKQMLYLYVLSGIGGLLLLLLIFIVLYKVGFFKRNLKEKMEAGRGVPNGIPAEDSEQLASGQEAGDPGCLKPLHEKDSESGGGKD
T1 sequence (P05107 23-769): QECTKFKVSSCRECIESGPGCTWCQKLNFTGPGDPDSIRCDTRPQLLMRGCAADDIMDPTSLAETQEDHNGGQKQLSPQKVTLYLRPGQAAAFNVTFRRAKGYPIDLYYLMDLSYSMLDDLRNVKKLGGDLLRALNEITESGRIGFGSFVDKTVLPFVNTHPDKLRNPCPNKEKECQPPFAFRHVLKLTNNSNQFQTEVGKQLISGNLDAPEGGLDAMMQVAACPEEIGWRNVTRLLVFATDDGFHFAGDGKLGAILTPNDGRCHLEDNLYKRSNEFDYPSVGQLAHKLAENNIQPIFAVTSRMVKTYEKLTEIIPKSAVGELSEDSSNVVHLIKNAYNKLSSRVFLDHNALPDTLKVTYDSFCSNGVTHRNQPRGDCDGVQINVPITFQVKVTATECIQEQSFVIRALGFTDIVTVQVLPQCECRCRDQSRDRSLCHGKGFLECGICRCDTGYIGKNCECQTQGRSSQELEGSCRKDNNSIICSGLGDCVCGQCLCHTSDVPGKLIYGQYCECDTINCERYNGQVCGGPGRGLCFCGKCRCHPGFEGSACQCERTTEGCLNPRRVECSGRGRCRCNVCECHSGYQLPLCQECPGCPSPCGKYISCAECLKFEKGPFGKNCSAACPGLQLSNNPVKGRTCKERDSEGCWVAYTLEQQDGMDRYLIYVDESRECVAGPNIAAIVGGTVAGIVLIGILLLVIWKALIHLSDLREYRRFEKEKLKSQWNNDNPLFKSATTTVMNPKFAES
Text: Assay to Determine Inhibition of LFA-1 Binding to ICAM-1 Purpose of Assay: This assay protocol is designed to study the direct antagonism, by a test compound, of the interaction of the CAM, ICAM-1 with the Leukointegrin CD18/CD11a (LFA-1). […] After collection and neutralization of fractions from the TS2/4 column, samples are pooled and precleared with Protein G agarose. […] Wells are washed 3 times with Diluting Buffer. The bound LFA-1 is detected by the addition of a polyclonal antibody directed against a peptide corresponding to the CD18 cytoplasmic tail in a 1:100 dilution with Diluting Buffer and 1% BSA and allowed to incubate for 45 min at 37° C. Wells are washed 3 times with Diluting Buffer and the bound polyclonal antibody is detected by the addition of a 1:4000 dilution of horse radish peroxidase conjugated to goat immunoglobulin directed against rabbit immunoglobulin. […] The lack of the addition of LFA-1 to the binding assay is used as a background control for all samples. A dose-response curve is obtained for all test compounds. Results of these tests are reported as Kd's in μM.

[2] = test system: cell bound form of LFA-1 (CD18, CD11a) with ICAM-1, SKW3 cells; experiment: Inhibition of SKW3 cell binding to ICAM-1 (PMA-stimulated); assay type: cell-based, human; details: read-out: Assay to Detect SKW3 Cells Binding to ICAM IC50
Outline: (§1)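 Compound-treated, PMA-stimulated human T-cell line SKW3 (50 μg/mL PMA final) allowed to adhere for 2 h at 37° C to wells coated with sICAM-1 at 40 μg/mL or fibronectin at 100 μg/mL. After gentle RPMI wash, 50% inhibition concentration or range reported in μM.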

[3] = test system: LFA-1 dependent aggregation of JY cells; experiment: JY cell homotypic aggregation assay (PMA-stimulated); assay type: cell-based, human; details: Homo sapiens
Text: This aggregation can be enhanced by the addition of phorbol esters. […] Thus, the extent of LFA-1-dependent binding may be determined by assessing the extent of spontaneous or phorbol ester-dependent aggregate formation.
An agent which interferes with LFA-1 -dependent aggregation can be identified through the use of an assay capable of determining whether the agent interferes with either spontaneous, or phorbol ester-dependent aggregation of Epstein-Barr virus transformed cells. It is preferable to employ cells of the JY cell line (Terhost, L; et aL, Proc. Natl. Acad. Sci. USA, 1976, 73, 910) for the homotypic aggregation assay. This assay, capable of measuring LFA-1 dependent aggregation, may be employed to identify agents which act as antagonists to the LFA-1 dependent aggregation. Such agents may act by impairing the ability of either LFA-1 or ICAM-1 to mediate aggregation. Thus, agents may be examined to directly determine if they are antagonists of LFA-1 aggregation.
Description of Assay Protocol:
JY cells are cultured in RPMI 1640 culture medium supplemented with 10% fetal calf serum and 50 μg/mL gentamycin. The cells are cultured at 37° C. in an atmosphere of 5% CO2 at a relative humidity of 95%. JY cells used in this assay are washed two times with RPMI 1640 medium containing 5 mM HEPES buffer and resuspended to a concentration of 2·10^6 cells/mL. Added to flat-bottomed, 96-well microtiter plates are 50 μL of test compound diluted in complete medium, 50 μL of complete medium with or without purified monoclonal antibodies (negative and positive controls for inhibition, respectively), 50 μL of complete medium containing 200 ng/mL of the phorbol ester phorbol myristate acetate (PMA) and 100 μL of cells at a concentration of 2·10^6 cells/mL in complete medium. This yields a final concentration of […] PMA and 2·10^5 cells/well. Cells are allowed to settle spontaneously, and the degree of aggregation is scored at various time points. […] This procedure has been described by Rothlein, R. R.; et al., J. Exp. Med. 1986, 163, 1132-1149. This paper also reported that antibody to LFA-1 is capable of inhibiting the formation of aggregates.
Data are reported as the concentration or concentration range (in μM) at which 50% of binding is inhibited.

[4] = test system: cell bound fibronectin receptor (VLA4) with fibronectin, SKW3 cells; experiment: Inhibition of SKW3 cell binding to fibronectin (selectivity counter-assay); assay type: cell-based, human; details: for IC50: Homo sapiens, read-out: Assay to Detect SKW3 Cells Binding to FIBRONECTIN IC50
Outline: as §1

[5] = values marked e approximated from incomplete dose-response curve
[6] = Homo sapiens, SKW3, values marked c: no inhibition observed up to highest dose
[7] = values marked c: no inhibition observed up to highest dose
[8] = SKW3, values marked c: no inhibition observed up to highest dose
[9] = No inh = no inhibition observed up to highest dose, exact quantification not always possible due to intrinsic toxicity

Compound | Kd [1, 5] [nM] | IC50 [2, 6] [nM] | Cellular Toxicity Assay MTT LD50 (SKW3 cells) [µM] | IC50 [3] [nM] | Assay to Detect SKW3 Cells Binding to FIBRONECTIN IC50 [4, 7] | IC50 [4, 8] [nM] | Kd [1] [nM] | IC50 ([2]; Homo sapiens, SKW3) [nM] | Assay to Detect SKW3 Cells Binding to FIBRONECTIN IC50 [4, 9] | IC50 [2, 7] [nM] | IC50 ([4]; SKW3, No inh = no inhibition observed up to highest dose, exact quantification not always possible due to intrinsic toxicity) [nM]
CCCC1(Cc2ccccc2)C(=O)N(c2cc(Cl)cc(Cl)c2)C(=O)N1C (centres unmarked) [Example 94] | 740 | 50000 to 100000 | 200 | 25000 | No inh^c |  |  |  |  |  | 
O=C1N[C@H](Cc2ccccc2)C(=O)N1c1cc(Cl)cc(Cl)c1 [Example 15] | 2300 | 31000 to 63000 | 125 to 250 | 25000 to 50000 | No Inh^c |  |  |  |  |  | 
COCN1C(=O)N(c2cc(Cl)cc(Cl)c2)C(=O)[C@@]1(C)Cc1ccc(Br)cc1 [Example 131] | 200 | 3000 to 5000 | >400 | 1100 | No inh^c |  |  |  |  |  | 
COC(=O)c1ccc(CC2(C)C(=O)N(c3cc(Cl)cc(Cl)c3)C(=O)N2C)cc1 (centres unmarked) [Example 140] | 110 | 1200 | 180 to 360 | 200 |  | > 10000 |  |  |  |  | 
C[C@@]1(Cc2ccc(Br)cc2)C(=O)N(c2cc(Cl)cc(Cl)c2)C(=O)N1Cc1ccc(C(=O)O)cc1 [Example 228] |  |  | 50 to 100 | 1600 |  |  | 410 | 12000 to 25000 | No inh^c |  | 
C[C@@]1(Cc2ccc(Br)cc2)C(=O)N(c2cc(Cl)cc(Cl)c2)C(=O)N1CCCCC#N [Example 256] |  |  | 150 to 300 | 400 |  |  | 120 | 800 to 2000 | No inh^c |  | 
Cc1cc(Br)cc(C)c1C[C@]1(C)C(=O)N(c2cc(Cl)cc(Cl)c2)C(=O)N1C [Example 122] | 130 | 12000 to 25000 | 200 to 400 | 1800 | No inh^c |  |  |  |  |  | 
CN1C(=O)N(c2cc(Cl)cc(Cl)c2)C(=O)[C@@H]1Cc1ccccc1 [Example 87] | 2000 | 50000 to 100000 | >500 | 50000 |  | > 100000 |  |  |  |  | 
CC1(Cc2c[nH]c3ccccc23)NC(=O)N(c2cc(Cl)cc(Cl)c2)C1=O (centres unmarked) [Example 23] | 770 |  | 50 to 100 | 13000 |  | > 100000 |  |  |  | 25000 to 50000 | 
C[C@]1(Cc2ccccc2)NC(=O)N(c2cc(Cl)cc(Cl)c2)C1=O [Example 265] |  |  | 130 to 250 | 3000 |  |  | 280 | 19000 to 38000 |  |  | > 75000
C[C@]1(Cc2ccc(Br)cc2)NC(=O)N(c2cc(Cl)c(Cl)c(Cl)c2)C1=O [Example 43] | 170 | 3000 to 6000 | 25 to 50 | 1800 | No inh^c |  |  |  |  |  | 
CN1C(=O)N(c2cc(Cl)cc(Cl)c2)C(=O)C1(C)Cc1cc(Br)cc(Br)c1 (centres unmarked) [Example 164] | 280 | > 100000 | 100 to 200 | 25000 | No inh^c |  |  |  |  |  | 
CC(=O)OCCN1C(=O)N(c2cc(Cl)cc(Cl)c2)C(=O)[C@@]1(C)Cc1ccc(Br)cc1 [Example 260] |  |  | 200 to 400 | 1100 |  |  | 70 | 19000 to 38000 | No inh^c |  | 
CC(C)N1C(=O)N(c2cc(Cl)cc(Cl)c2)C(=O)C1(C)Cc1ccc(Br)cc1 (centres unmarked) [Example 141] | 220 | 15000 | 300 | 100 |  | > 15000 |  |  |  |  | 
Cc1cccc(C)c1CC1(C)C(=O)N(c2cc(Cl)cc(Cl)c2)C(=O)N1C (centres unmarked) [Example 163] | 160 | 9000 to 19000 | 200 to 400 | 2400 |  | > 75000 |  |  |  |  | 
CC1(Cc2ccccc2)NC(=O)N(c2cc(Cl)cc(Cl)c2)C1=O (centres unmarked) [Example 18] | 760 | 32000 to 63000 | 125 to 250 | 6000 |  | > 125000 |  |  |  |  | 
C[C@@]1(Cc2ccc(Br)cc2)C(=O)N(c2cc(Cl)cc(Cl)c2)C(=O)N1CCCCn1ccnc1 [Example 252] |  |  | 17 to 20 | 300 |  |  | 110 | 400 to 800 | No inh^c |  | 
CN1C(=O)N(c2cc(C(F)(F)F)cc(C(F)(F)F)c2)C(=O)[C@@]1(C)Cc1ccc(Br)cc1 [Example 100] | 190 | 8000 to 15000 | >400 | 700 |  | > 60000 |  |  |  |  | 
C[C@@]1(Cc2ccc(Br)cc2)C(=O)N(c2cc(Cl)cc(Cl)c2)C(=O)N1Cc1ccccc1O [Example 247] |  |  | 40 to 80 | 2300 |  |  | 230 | 1500 to 3000 | No inh^c |  | 
CN1C(=O)N(c2cc(Cl)cc(Cl)c2)C(=O)C1(C)Cc1ccc(C(F)(F)F)cc1 (centres unmarked) [Example 171] | 180 | 102000 | 100 to 200 | 200 | No inh^c |  |  |  |  |  | 
CCC1(Cc2ccccc2)C(=O)N(c2cc(Cl)cc(Cl)c2)C(=O)N1C (centres unmarked) [Example 93] | 1270 | > 100000 | 100 to 200 | 13000 | No inh^c |  |  |  |  |  | 
CC1(Cc2ccc(Br)cc2)NC(=O)N(c2cc(Cl)cc(Cl)c2)C1=S (centres unmarked) [Example 81] | 80 | 1000 to 3000 | 25 to 50 | 6300 | No inh^c |  |  |  |  |  | 
